Tests used:
Type in all cases: cell-based
[1] = system: VEEV; experiment: microbe, parasite or virus in culture; conditions: Venezuelan equine encephalitis virus, NHDF; for EC90: read-out: VEEV (NHDF cells) EC90; for log reduction at 10 µM: read-out: VEEV (NHDF cells) VTR (virus titer reduction)
[2] = system: H3N2 strain; experiment: Antiviral activity against Influenza H3N2 strain in MDCK cells; conditions: Influenza A virus; for EC90: 4-6 hours pre-incubation with compound; for log reduction at 20 µM: at 20 μM concentration, 4-6 hours pre-incubation, read-out: H3N2 strain (MDCK cells) VTR (virus titer reduction)
Procedure: (§1) The antiviral activity against Influenza viruses (H1N1 and H3N2 strains) evaluated in MDCK cells (4-6 hours pre-incubation with compound) shown in Table 5 below. VTR=Virus titer reduction in log at 20 μM concentration. NT: not tested, ND: not determined.

[3] = system: H1N1 strain; experiment: Antiviral activity against Influenza H1N1 strain in MDCK cells; conditions: Influenza A virus; for EC90: 4-6 hours pre-incubation with compound; for log reduction at 20 µM: at 20 μM concentration, 4-6 hours pre-incubation, read-out: H1N1 strain (MDCK cells) VTR (virus titer reduction)
Procedure: as §1

[4] = system: WNV; experiment: Antiviral activity against WNV in HEK293 cells; conditions: West Nile virus; for EC90: HEK293, read-out: WNV (HEK293 cells) EC90; for log reduction at 10 µM: HEK293, read-out: WNV (HEK293 cells) VTR (virus titer reduction)
[5] = system: ZIKA; experiment: Antiviral activity against ZIKA in HEK 293 cells; conditions: Zika virus; for EC90: HEK293, read-out: ZIKA (HEK 293 cells) EC90; for log reduction at 10 µM: HEK293, read-out: ZIKA (HEK 293 cells) VTR (virus titer reduction)
[6] = Cytotoxicity (CC50) in NHDF cells; conditions: human, CHIKV
Procedure: (§2) As used herein, “CC50” is intended to refer to the concentration of a substance (e.g., a compound or a drug) that is required for 50% reduction of cell viability. In one aspect, an CC50 can refer to the concentration of a substance that is required for 50% reduction (i.e., cytotoxicity) in vivo, as further defined elsewhere herein.
VTR=Virus titer reduction in log at 10 μM concentration. NT: not tested, ND: not determined.

[7] = Cytotoxicity (CC50) in MDCK cells; conditions: dog, H1N1
Procedure: as §2, §1

[8] = system: CHIKV; experiment: Antiviral activity against CHIKV in NHDF cells; conditions: Chikungunya virus; for EC90: read-out: CHIKV (NHDF cells) EC90; for log reduction at 10 µM: read-out: CHIKV (NHDF cells) VTR (virus titer reduction)
[9] = Cytotoxicity (CC50) in HEK293 cells; conditions: human, WNV
Procedure: as §2
The antiviral activity against Alpharviruses evaluated in HEK293 cells (4 hours pre-incubation with compound before infected with virus) is shown in Table 2 below. VTR=Virus titer reduction in log at 10 μM concentration. NT: not tested, ND: not determined

[10] = system: DENV; experiment: Antiviral activity against DENV in HEK293 cells; conditions: Dengue virus; for EC90: HEK293, read-out: DENV (HEK293 cells) EC90; for log reduction at 10 µM: HEK293, read-out: DENV (HEK293 cells) VTR (virus titer reduction)

SMILES	EC90 [1] [µM]	log reduction at 10 µM [1]	EC90 [2] [µM]	log reduction at 20 µM [2]	EC90 [3] [nM]	log reduction at 20 µM [3]	EC90 [4] [nM]	log reduction at 10 µM [4]	EC90 [5] [nM]	log reduction at 10 µM [5]	CC50 [6] [µM]	CC50 [7] [µM]	EC90 [8] [µM]	log reduction at 10 µM [8]	CC50 [9] [µM]	EC90 [10] [nM]	log reduction at 10 µM [10]
CCCCCCCCCCCCCCCCCC(=O)OC[C@H]1O[C@@H](n2ncc(=O)[nH]c2=O)[C@H](O)[C@@H]1O [Compound 15, ((2r,3s,4r,5r)-5-(3,5-dioxo-4,5-dihydro-1,2,4-triazin-2(3H)-yl)-3,4-dihydroxytetrahydrofuran-2-yl)methyl stearate]	> 10	0	3.29	3	750	3.3	330	4.5	400	3	7.96	> 20	0.31	2.6	0.97	160	3.6
C[C@H](NP(=O)(OC[C@H]1O[C@@H](n2ncc(=O)[nH]c2=O)[C@H](O)[C@@H]1O)Oc1ccccc1)C(=O)OCc1ccc([N+](=O)[O-])o1 (mixture of isomers) [Compound 1, (5-nitrofuran-2-yl)methyl ((((2R,3S,4R,5R)-5-(3,5-dioxo-4,5-dihydro-1,2,4-triazin-2(3H)-yl)-3,4-dihydroxytetra-hydrofuran-2-yl)methoxy)(phenoxy)phosphoryl)-L-alaninate]	> 10	0.85	–	0.6	–	1.6	600	3.8	3200	2.2	> 40	> 100	0.95	4.3	40	1900	2.4
CC(C)COC(=O)[C@H](C)NP(=O)(OC[C@H]1O[C@@H](n2ncc(=O)[nH]c2=O)C(O)[C@H]1O)Oc1ccccc1 (stereo in doubt) [Compound 4, 2-isobutyl ((((2R,3S,4R,5R)-5-(3,5-dioxo-4,5-dihydro-1,2,4-triazin-2(3H)-yl)-3,4-dihydroxytetrahydrofuran-2-yl)methoxy)(phenoxy)phosphoryl)-L-alaninate]	8.9	1.18	–	1.3	–	3.4	1200	3.1	4800	2	> 40	> 100	> 10	0	40	2000	2.2
COC(=O)[C@H](C)NP(=O)(OC[C@H]1O[C@@H](n2ncc(=O)[nH]c2=O)[C@H](O)[C@@H]1O)Oc1ccccc1 (mixture of isomers) [Compound 7, methyl ((((2R,3S,4R,5R)-5-(3,5-dioxo-4,5-dihydro-1,2,4-triazin-2(3H)-yl)-3,4-dihydroxytetrahydrofuran-2-yl)methoxy)-(phenoxy)phosphoryl)-L-alaninate]	> 10	0	–	1.6	–	3.4	4300	2.6	7600	1.3	> 40	> 100	> 10	0	40	5000	3.2
CC[C@H](C)[C@H](N)C(=O)OC[C@H]1O[C@@H](n2ncc(=O)[nH]c2=O)[C@H](O)[C@@H]1O [Compound 10, ((2r,3s,4r,5r)-5-(3,5-dioxo-4,5-dihydro-1,2,4-triazin-2(3H)-yl)-3,4-dihydroxytetrahydrofuran-2-yl)methyl L-isoleucinate]	0.62	3.51	3.33	3.4	3680	3.4	200	3.9	500	3.1	> 40	19.3	> 10	0.39	29	300	3.4
CCCC(CCC)C(=O)Nc1cnn([C@@H]2O[C@H](CO)[C@@H](O)[C@H]2O)c(=O)n1 [Compound 18, N-(2-((2r,3r,4s,5r)-3,4-dihydroxy-5-(hydroxymethyl)-tetrahydrofuran-2-yl)-3-oxo-2,3-dihydro-1,2,4-triazin-5-yl)-2-propylpentanamide]	> 10	0.13	2.78	3.4	660	3.3	400	2.8	100	2.7	> 40	19.6	3.2	1.42	30.8	200	4
